Our source for the IC50 values is patent US5652237A, “2-substituted-4H-3, 1-benzoxazin-4-ones and benzthiazin-4-ones as inhibitors of complement C1r protease for the treatment of inflammatory processes” (Warner-Lambert Company, priority 1995, dated 1997).

Where two headings read alike, the source gives them in different places.

In experiment [1] the target is T1, human complement protease C1 r (Homo sapiens, UniProt P00736).
T1 sequence (P00736 464-705 limits assumed): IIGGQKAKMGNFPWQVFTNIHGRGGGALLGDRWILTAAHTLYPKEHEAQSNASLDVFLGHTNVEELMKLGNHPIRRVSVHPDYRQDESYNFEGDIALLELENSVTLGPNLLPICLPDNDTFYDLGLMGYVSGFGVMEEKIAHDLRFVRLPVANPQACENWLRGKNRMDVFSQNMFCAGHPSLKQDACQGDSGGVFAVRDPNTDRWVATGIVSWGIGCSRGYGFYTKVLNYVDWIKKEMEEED
T1 sequence (P00736 18-463 partner limits assumed): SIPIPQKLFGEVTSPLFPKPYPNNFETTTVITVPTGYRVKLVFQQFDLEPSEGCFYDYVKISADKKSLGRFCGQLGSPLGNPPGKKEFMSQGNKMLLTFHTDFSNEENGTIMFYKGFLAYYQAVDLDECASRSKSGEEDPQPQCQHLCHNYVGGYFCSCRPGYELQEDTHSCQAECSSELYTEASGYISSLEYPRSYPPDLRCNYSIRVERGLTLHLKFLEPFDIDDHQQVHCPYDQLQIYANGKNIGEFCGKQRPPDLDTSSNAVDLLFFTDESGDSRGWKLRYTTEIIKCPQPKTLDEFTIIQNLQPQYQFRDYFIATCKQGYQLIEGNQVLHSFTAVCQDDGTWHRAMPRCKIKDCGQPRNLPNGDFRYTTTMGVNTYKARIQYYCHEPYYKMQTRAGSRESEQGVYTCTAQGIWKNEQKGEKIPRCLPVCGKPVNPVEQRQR
The experiment is described as follows: Assay 2, inhibition of human complement protease C1r with substrate ZVGR-pNA. Type of experiment: biochemical. The note with it: Table 2; substrate ZVGR-pNA 1.2 mM, pH 7.4, 25° C., 10 minutes preincubation; read-out: Inhibition of Clr ZVGRpNA - Assay 2. Here is the method:
The assay was performed in a 96-well format. Fifty microliters of water were added to each well followed by 2.5 μL of an inhibitory agent, usually in dimethyl foramide (DMF) (or water). A C1 r solution (100 μL) containing 0.1 μg of activated human C1 r and 100 mM Tris-HCl (pH 7.4 at 25° C.) was then added. The mixture was incubated for 10 minutes at 25° C. The reaction was then started by the addition of 100 μL of a 3 mM (Cbz-Val-Gly-Arg-p-nitroanilide) ZVGR-pNA solution. The final reaction mixture (250 μL) contained 40 mM of Tris-HCl, 1.2 mM of ZVGR-pNA, 0.1 μg C1 R and certain concentration of an inhibitor. The production of p-nitroaniline was monitored at 405 nm every 15 minutes up to 90 minutes (at 25° C.). The velocity was linear for at least 60 minutes.

Experiment [2] deals with T2, human C1 r (Homo sapiens, UniProt P00736).
T2 construct: purchased Enzyme Research Labs (South Bend, Ind.)
T2 sequence (P00736 464-705 limits assumed): T1 sequence (P00736 464-705 limits assumed)
T2 sequence (P00736 18-463 partner limits assumed): T1 sequence (P00736 18-463 partner limits assumed)
The experiment is described as follows: Assay of C1r Enzyme Activity (Assay 1), thioester substrate z-Gly-Arg-S-Bzl with DTNB. Type of experiment: biochemical. Here is the method:
Assay of C1 r Enzyme Activity Purified human C1 r was obtained commercially from Enzyme Research Labs (South Bend, Ind.). The enzyme is stored frozen at -70° C. at a stock concentration of about 1 mg/mL of protein until the enzyme is needed. […] The thioester substrate, z-Gly-Arg-S-Bzl, for C1 r assays (McRae, et al., 1981) is obtained commercially from Enzyme System Products (Livermore, Calif.). All other reagents were obtained from Sigma Chemical Co. (St. Louis, Mo.). The procedure for assaying the inhibition of C1 r enzyme activity is as follows. A 5 mM stock solution of z-Gly-Arg-S-Bzl is made in dimethylsulfoxide (DMSO) and stored at room temperature until needed. The stock substrate solution is diluted 3 parts stock substrate solution to 7 parts distilled water to make a 1.5 mM working substrate solution. The working substrate solution is made just before it is needed. A fresh solution of 20 μg/mL of C1 r enzyme is made in 10 mM Tris buffer, pH 7.4. The enzyme solution can be stored on ice for up to an hour. […] Compounds at concentrations ranging from 1 mM to 0.010 mM are dissolved in DMSO and a 10 μL aliquot of each concentration is deposited in a well of a 96-well microtiter plate. Fifty microliters of the working substrate solution and 50 μL of DTNB solution are then dispensed in the wells of the microtiter plate, followed by the immediate addition of 50 μL of the C1 r enzyme solution to start the assay. The assay produces a yellow color that is read in the kinetic mode using a Molecular Devices Thermomax microplate reader set to a wavelength of 405 nm. The assay background is followed by monitoring wells that contain substrate, buffer, and DTNB solutions but no enzyme. All assays are performed in triplicate at each inhibitor concentration tested. Values for each inhibitor concentration are reported as optical density (OD)/minute.

Where [3] appears, read: Table 2, pH 7.4-7.5, read-out: Inhibition of Clr Assay 1 IC50.
[4] abbreviates: Table 1 and text, pH 7.4-7.5, read-out: Inhibition of Clr Assay 1 (IC50).

As for `CCCCCCC(=O)N(CC)c1nc2ccccc2c(=O)o1` [Example 66, Heptanoic acid ethyl-(4-oxo-4H-benzo[d][1,3]oxazin-2-yl)-amide], the IC50 worked out at 0.029 µM in experiment [1] and 6.32 µM in experiment [2] (setting [3]). For `CN(C(=O)C1CCCCC1)c1nc2ccccc2c(=O)o1` [Example 65, Cyclohexanecarboxylic acid methyl-(4-oxo-4H-benzo[d][1,3]oxazin-2-yl)-amide], the IC50 in experiment [1] stood at 0.0078 µM; in experiment [2] (setting [3]), 1.2 µM. As to `CCCCCCC(=O)N(C)c1nc2ccccc2c(=O)o1` [Example 64, Heptanoic acid methyl-(4-oxo-4H-benzo[d][1,3]oxazin-2-yl)-amide], the IC50 in experiment [1] is 0.0478 µM; in experiment [2] (setting [3]), 0.68 µM.

As to `CC(=O)N(C)c1nc2ccccc2c(=O)o1` [Example 69, N-Methyl-N-(4-oxo-4H-benzo[d][1,3]oxazin-2-yl)acetamide], the values for the IC50 in experiment [1] and in experiment [2] (setting [3]) were 0.399 µM and 30 µM, respectively. Consider `Cc1ccc2c(=O)oc(N(C)C(=O)c3ccccc3I)nc2c1` [Example 55, 2-Iodo-N-methyl-N-(7-methyl-4-oxo-4H-benzo[d][1,3]oxazin-2-yl)-benzamide], for which the IC50 in experiment [2] (setting [4]) stood at 2.8 µM.

Turning to `COc1ccc2nc(Nc3ccccc3I)oc(=O)c2c1` [Example 24, 2-(2-Iodo-phenylamino)-6-methoxy-benzo[d][1,3]oxazin-4-one], in experiment [2] (setting [4]), the IC50 worked out at 55 µM. As for `CN(C(=O)c1ccccc1F)c1nc2ccccc2c(=O)o1` [Example 33, 2-Fluoro-N-methyl-N-(4-oxo-4H-benzo[d][1,3]oxazin-2-yl)-benzamide], the IC50 in experiment [2] (setting [4]) amounted to 60 µM. For `CCN(C(=O)c1ccccc1I)c1nc2ccccc2c(=O)o1` [Example 18, N-Ethyl-2-iodo-N-(4-oxo-4H-benzo[d][1,3]oxazin-2-yl)-benzamide], the IC50 in experiment [2] (setting [4]) is 8.3 µM. `CN(C(=O)CCc1ccccc1)c1nc2ccccc2c(=O)o1` [Example 68, N-Methyl-N-(4-oxo-4H-benzo[d][1,3]oxazin-2-yl)-3-phenyl-propionamide]: the IC50 in experiment [1] worked out at 0.103 µM; in experiment [2] (setting [3]), 1.3 µM. With `CCN(c1nc2ccccc2c(=O)o1)c1ccccc1I` [Example 11, 2-[Ethyl-(2-iodo-phenyl)-amino]-benzo[d][1,3]oxazin-4-one], the IC50 in experiment [2] (setting [4]) is more than 66 µM. Still for that read-out and setting: the same measure for `COc1ccc2c(=O)oc(Nc3ccccc3I)nc2c1` [Example 25, 2-(2-Iodo-phenylamino)-7-methoxy-benzo[d][1,3]oxazin-4-one]: more than 66 µM. `CCCCCCCCCCC(=O)N(C)c1nc2ccccc2c(=O)o1` [Example 67, Undecanoic acid methyl-(4-oxo-4H-benzo[d][1,3]oxazin-2-yl)-amide]: the IC50 was 0.5 µM in experiment [1] and more than 62.5 µM in experiment [2] (setting [3]). Turning to `CN(C)c1ccc2c(=O)oc(Nc3ccccc3I)nc2c1` [Example 19, 7-Dimethylamino-2-(2-iodo-phenylamino)-benzo[d][1,3]oxazin-4-one], the IC50 in experiment [2] (setting [4]) is more than 66 µM. With `CN(C(=O)c1ccc(I)cc1)c1nc2ccccc2c(=O)o1` [Example 38, 4-Iodo-N-methyl-N-(4-oxo-4H-benzo[d][1,3]oxazin-2-yl)-benzamide], the IC50 in experiment [2] (setting [4]) was determined as 33 µM. Still for that read-out and setting: the same measure for `CN(C(=O)c1ccco1)c1nc2ccccc2c(=O)o1` [Example 61, Furan-2-carboxylic acid methyl-(4-oxo-4H-benzo[d][1,3]oxazin-2-yl)-amide]: 10.1 µM. Still for that read-out and setting: as for `CN(C(=O)c1ccsc1)c1nc2ccccc2c(=O)o1` [Example 32, Thiophene-3-carboxylic acid methyl-(4-oxo-4H-benzo[d][1,3]oxazin-2-yl)-amide], the figure is 6 µM.

Turning to `O=c1oc(Nc2ccccc2Cl)nc2cc(Cl)c(Cl)cc12` [Example 48, 6,7-Dichloro-2-(2-chloro-phenylamino)-benzo[d][1,3]oxazin-4-one], the IC50 in experiment [2] (setting [4]) amounted to 2 µM. On the same count and under the same terms, the same measure for `CCCCc1ccc(C(=O)N(C)c2nc3ccccc3c(=O)o2)cc1` [Example 58, 4-Butyl-N-methyl-N-(4-oxo-4H-benzo[d][1,3]oxazin-2-yl)-benzamide]: 16 µM. The same measure, in the same setting: the same measure for `O=c1oc(Nc2ccccc2Cl)nc2ccccc12` [Example 2, 2-(2-Chloro-phenylamino)-benzo[d][1,3]oxazin-4-one]: 6.5 µM.

Take `CSc1ccccc1Nc1nc2ccccc2c(=O)o1` [Example 8, 2-(2-Methylsulfanyl-phenylamino)-benzo[d][1,3]oxazin-4-one]: in experiment [2] (setting [4]), the IC50 is more than 66 µM. For the compound `CN(C(=O)c1cccnc1)c1nc2ccccc2c(=O)o1` [Example 62, N-Methyl-N-(4-oxo-4H-benzo[d][1,3]oxazin-2-yl)nicotinamide], the IC50 in experiment [2] (setting [4]) was determined as 40 µM. In the case of `O=c1oc(Nc2c(Cl)cccc2Cl)nc2ccccc12` [Example 7, 2-(2,6-Dichloro-phenylamino)-benzo[d][1,3]oxazin-4-one], the IC50 in experiment [2] (setting [4]) stood at 1.3 µM.

On to `CN(C(=O)c1ccccc1I)c1nc2ccc(Cl)cc2c(=O)o1` [Example 41, N-(6-Chloro-4-oxo-4H-benzo[d][1,3]oxazin-2-yl)-2-iodo-N-methyl-benzamide], for which the IC50 in experiment [2] (setting [4]) was more than 66 µM.

On to `CN(C(=O)c1ccccc1)c1nc2ccccc2c(=O)o1` [Example 17, N-Methyl-N-(4-oxo-4H-benzo[d][1,3]oxazin-2-yl)benzamide], for which the IC50 in experiment [2] (setting [4]) amounted to 10.7 µM. Still for that read-out and setting: as for `COc1ccc2nc(N(C)C(=O)c3ccccc3I)oc(=O)c2c1` [Example 43, 2-Iodo-N-(6-methoxy-4-oxo-4H-benzo[d][1,3]oxazin-2-yl)-N-methyl-benzamide], the figure is 48 µM. On to `O=c1oc(Nc2ccccc2Cl)nc2cc([N+](=O)[O-])ccc12` [Example 52, 2-(2-Chloro-phenylamino)-7-nitro-benzo[d][1,3]oxazin-4-one], for which, in experiment [2] (setting [4]), the IC50 was 1.4 µM. Same read-out and setting: the same measure for `CN(C(=O)c1ccccc1Cl)c1nc2ccccc2c(=O)o1` [Example 34, 2-Chloro-N-methyl-N-(4-oxo-4H-benzo[d][1,3]oxazin-2-yl)-benzamide]: 16 µM.
